Measured values reported in patent US9926293B2, “Multivalent RAS binding compounds” (THE TRUSTEES OF COLUMBIA UNIVERSITY IN THE CITY OF NEW YORK, priority 2014, dated 2018).

What was measured:
[1] = tested on: BJeLR (HRAS G12V); test: Cell viability assay (384-well, Alamar blue); format: cell-based; conditions: 48 h
Method: (§1) All cell culture assays were incubated at 37° C., 5% CO2 in media containing Dulbecco's Modified Eagle Medium (DMEM) with 10% fetal bovine serum (FBS) and 1% penicillin-streptomycin (PS). 384-well format for EC50 determination: cells were trypsinized, counted, and seeded into 384-well plates at 1,000 cells/well. After 12-16 hours, compounds (as 50 mM stocks in DMSO) were arrayed in an 8- or 16-point dilution series in 384-well polypropylene plates. Compound solutions were transferred at a 1:5 dilution into the assay plates. After 48 hours, a 50% Alamar blue solution was added to a final concentration of 10% Alamar blue. After 6 hours of incubation, fluorescence intensity was determined using a Victor3 plate reader (Perkin Elmer) with a 535 nm excitation filter and a 590 nm emission filter. All compound measurements were performed in triplicate. For experiments performed in 6-well format, cells were trypsinized, counted, and seeded into 6-well plates at 200,000 cells per well 16 h prior to use. Media was then aspirated and replaced with 2 mL of media containing compounds at the indicated concentrations (from 10 mM stocks in DMSO). After 24 hours, cells were trypsinized and viability was determined using Trypan Blue exclusion assay.

[2] = tested on: HPAFII (KRAS G12D); test: Cell viability assay (384-well, Alamar blue); format: cell-based; conditions: Homo sapiens, HPAF-II, 48 h
Method: as §1

[3] = tested on: HT1080 (NRAS Q61K); test: Cell viability assay (384-well, Alamar blue); format: cell-based; conditions: Homo sapiens, HT-1080, 48 h
Method: as §1

[4] = tested on: MDA-MB-231 (KRAS G13D); test: Cell viability assay (384-well, Alamar blue); format: cell-based; conditions: Homo sapiens, MDA-MB-231, 48 h
Method: as §1

[5] = tested on: MIA Paca-2 (KRAS G12C); test: Cell viability assay (384-well, Alamar blue); format: cell-based; conditions: Homo sapiens, MIA PaCa-2, 48 h
Method: as §1

[6] = tested on: Panc-1 (KRAS G12D); test: Cell viability assay (384-well, Alamar blue); format: cell-based; conditions: Homo sapiens, PANC-1, 48 h
Method: as §1

[7] = tested on: SW480 (KRAS G12V); test: Cell viability assay (384-well, Alamar blue); format: cell-based; conditions: Homo sapiens, SW480, 48 h
Method: as §1

[8] = tested on: U2OS (WT); test: Cell viability assay (384-well, Alamar blue); format: cell-based; conditions: Homo sapiens, Table 7, 48 hours, 8-point dilution series
Method: as §1

[9] = tested on: RAS-RAF interaction in BJeLR cells; test: Cell-based RAS pulldown with CRAF-RBD agarose beads; conditions: 2 μM and 8 μM, 24 hours, serum free
Method: FIG. 20A-FIG. 20B show BJeLR cells were treated as described in FIG. 19A-FIG. 19B and the lysate was incubated with CRAF-RBD bound agarose beads. The beads were then washed three times with PBS to remove any unbound RAS and the bound fraction was then denatured and subjected to detection by western blotting using a pan-RAS antibody (FIG. 20A).
BJeLR cells were seeded at one million cells/10 cm dish in 10% FBS and incubated at 37° C. overnight. The medium was then aspirated and replaced with serum free media containing the inhibitors (from 10 mM DMSO stocks). The cells were then incubated for 24 hours at 37° C. The medium was removed, washed with cold PBS, lysed and spun down at 13,000 rpm at 4° C. to remove unlysed cells and debris. The lysate was incubated with Raf-1 RBD agarose beads (EMD millipore) for 2 hours with rotation at 4° C. The solution was then spun down at 1500×g and the supernatant removed. The beads were washed twice with PBS, resuspended in 2.5×SDS, and then analyzed by western blotting procedure.

[10] = tested on: phosphorylated AKT in BJeLR cells; test: Western blot of phosphorylated AKT; format: cell-based; conditions: 2 μM and 8 μM, 24 hours, serum free
Method: FIG. 21A-FIG. 21B show BJeLR cells were treated as described in FIG. 19A-FIG. 19B and the lysate was subjected to detection of phosphorylated AKT ([…]) and total AKT by western blotting (FIG. 21A).
BJeLR cells were seeded in 60 mm dishes at 1 million cells/dish in media containing DMEM and 10% FBS with 1% penicillin and streptomycin (PS), 12-16 hours prior to use. The medium was then aspirated and compounds added as solutions in serum free medium (DMEM with 1% PS) to the dishes and treated for 24 hours or at the indicated time points. Following treatment, the medium was aspirated from each dish and cells were washed twice with PBS. […] Antibodies for pERK1/2, ERK1/2, pAKT ser473, AKT, pan-RAS, RALA, PI3Kgamma (Cell signaling), and RAF-1 (Santa Cruz) were detected using a goat anti-rabbit or goat anti-mouse IgG antibody conjugated to an IRdye at 800CW and 680CW conjugated, respectively (Li-COR biosciences).

[11] = Table 7, 8-point dilution series
[12] = Table 8, MDA-MB-231 (KRAS^G13O), 384-well, alamar blue

| Structure (SMILES) | EC50 [1, 11] [µM] | EC50 ([1]; Table 8, 384-well, alamar blue) [µM] | EC50 [2, 11] [µM] | EC50 ([2]; Table 8, 384-well, alamar blue) [µM] | EC50 [3, 11] [µM] | EC50 ([3]; Table 8, 384-well, alamar blue) [µM] | EC50 [4, 11] [µM] | EC50 [4, 12] [µM] | EC50 [5, 11] [µM] | EC50 ([5]; Table 8, 384-well, alamar blue) [µM] | EC50 [6, 11] [µM] | EC50 ([6]; Table 8, 384-well, alamar blue) [µM] | EC50 [7, 11] [µM] | EC50 ([7]; Table 8, 384-well, alamar blue) [µM] | EC50 [8] [µM] | CRAF-RBD-bound RAS [9] | phosphorylated AKT [10] |
| --- | --- | --- | --- | --- | --- | --- | --- | --- | --- | --- | --- | --- | --- | --- | --- | --- | --- |
| NC1(C(=O)NCCCn2cc(-c3ccc(OC(F)(F)F)cc3)c3cc(CN4CCN(Cc5c(Cl)cccc5Cl)CC4)ccc32)CCNCC1 [Compound 31MEW44, 4-amino-N-(3-(5-((4-(2,6-dichlorobenzyl)piperazin-1-yl)methyl)-3-(4-(trifluoromethoxy)phenyl)-1H-indol-1-yl)propyl)piperidine-4-carboxamide] | 3.95 | 4 | 6.02 | 5.2 | 2.47 | 1.1 | 2.26 | 2.3 | 2.81 | 3.2 | 2.06 | 5.1 | 2.18 | 2.2 | 5.03 | dose-dependent decrease in CRAF-RBD-bound RAS | dose-dependent decrease in phosphorylated AKT |
| NC1(C(=O)NCCCn2cc(-c3cccc(F)c3)c3c(CN4CCN(CCOc5ccc(Cl)cc5)CC4)cccc32)CCNCC1 [Compound 34MEW43, 4-amino-N-(3-(4-((4-(2-(4-chlorophenoxy)ethyl)piperazin-1-yl)methyl)-3-(3-fluorophenyl)-1H-indol-1-yl)propyl)piperidine-4-carboxamide] | 9.71 | 9.7 | 16.4 | 16 | 5.17 | 5.2 | 5.63 | 5.6 | 8.45 | 8.5 | 5.96 | 6 | 7.06 | 7.1 | 12.3 | dose-dependent decrease in CRAF-RBD-bound RAS | dose-dependent decrease in phosphorylated AKT |
